# Laboratory results taken from US20230346744A1, “SULFUR-CONTAINING COMPOUND USEFUL FOR TREATING OR PREVENTING PRESBYOPIA” (SANTEN PHARMACEUTICAL CO., LTD., priority 2020, published 2023).
# What was measured:
# Format in all cases: in vivo
# C57BL/6J mice [1] = experiment: Pharmacological Test-5: once-daily instillation of Compounds 5, 6 and 7 for 2 weeks, lens elasticity; settings: once per day for 14 days; for Lens elasticity improvement: 2.5 μL/eye, 8-month-old mice, vs vehicle control
# Procedure: The effect of once-daily instillation of each of Compounds 5, 6, and 7 for 2 weeks on the lens elasticity was examined.
# (§1) A vehicle comprising 1.0% (w/v) of CO35, 0.1% (w/v) of ethyl pyruvate, 0.269% (w/v) of sodium dihydrogenphosphate monohydrate (NaH2 PO4.H2O), 0.433% (w/v) of disodium hydrogenphosphate (Na2HPO4), 0.2% (w/v) of hydroxypropyl methylcellulose, 0.5% (w/v) of NaCl, and purified water (appropriate amount) was prepared.
# Compound 5 was stirred with the addition of the vehicle to give a 0.1% (w/v) suspension. The resulting 0.1% (w/v) suspension was diluted with the vehicle to give a 0.03% (w/v) suspension.
# Compound 6 was stirred with the addition of the vehicle to give a 0.1% (w/v) suspension. The resulting 0.1% (w/v) a suspension was diluted with the vehicle to give a 0.03% (w/v) suspension.
# Compound 7 was stirred with the addition of the vehicle to give a 0.1% (w/v) suspension.
# (§2) After preparation, all were refrigerated.
# EVO6 was stirred with the addition of the vehicle to give a 0.03% (w/v) solution, which was for comparison in the test for Compounds 5, 6 and 7. After preparation, it was refrigerated.
# 1) Each test sample (2.5 μL/eye) was instilled into both eyes of 8-month-old C57BL/6J mice with a Pipetman once per day (around 13:30) for 14 days.
# (§3) 2) After the final instillation, the mice were euthanized by carbon dioxide inhalation, and then the eyeballs were extracted and rinsed with Hank's balanced salt solution (HBSS).
# (§4) 3) The sclera near the optic nerve was cut with a razor, the lens was removed through the incision, and the removed lens was immersed in HBSS.
# (§5) 4) The lens was placed on a glass slide, and an all-in-one fluorescence microscope BZ-9000 (Keyence) was used to capture an image of the lens (Image a).
# (§6) 5) Next, one cover glass (Corning(registered trade mark) 22×22 mm Square) was placed on the lens, and an image in which the thickness of the lens changed due to the weight was similarly captured (Image b).
# (§7) 6) A change in the lens diameter was calculated from Equation 1 wherein the lens diameter of Image a is subtracted from the lens diameter of Image b, as described below. Then, the lens elasticity improvement of each sample group compared with the vehicle control group was calculated from Equation 2 described below. The mean value of each group was based on 8 eyes.
# (§8) Change in lens diameter=Lens diameter in Image b of each test sample−Lens diameter in Image a of each test sample Equation 1
# (§9) Lens elasticity improvement of each sample group=Mean change in lens diameter of each Test sample group−Mean change in lens diameter of Vehicle control group Equation 2
# C57BL/6J mice [2] = experiment: Pharmacological Test-3: once-daily instillation of Compounds 1, 2 and 3 for 2 weeks, lens elasticity; settings: once per day for 14 days; for Lens elasticity improvement: 2.5 μL/eye, 8-month-old mice, vs vehicle control
# Procedure: The effect of once-daily instillation of each of Compounds 1, 2 and 3 for 2 weeks on the lens elasticity was examined.
# as §1
# Each of Compounds 1 and 2 was stirred with the addition of the vehicle to give a 0.1% (w/v) solution.
# To Compound 3 was added the vehicle to give a 0.1% (w/v) suspension. The resulting 0.1% (w/v) suspension was diluted with the vehicle to give a 0.03% (w/v) solution. Further, the resulting 0.03% (w/v) solution was diluted with the vehicle to give a 0.01% (w/v) solution.
# After preparation, all were frozen.
# 1) Each test sample (2.5 μL/eye) was instilled into both eyes of 8-month-old C57BL/6J mice with a Pipetman once per day (around 9:00) for 14 days.
# as §3, §4, §5, §6
# as §7, with “10” for “8”
# as §8, §9
# C57BL/6J mice [3] = experiment: Pharmacological Test-4: once-daily instillation of Compounds 3 and 4 for 2 weeks, lens elasticity; settings: once per day for 14 days; for Lens elasticity improvement: 2.5 μL/eye, 8-month-old mice, vs vehicle control
# Procedure: The effect of once-daily instillation of each of Compounds 3 and 4 for 2 weeks on the lens elasticity was examined.
# as §1
# Compound 3 was stirred with the addition of the vehicle to give a 0.03% (w/v) suspension.
# Compound 4 was stirred with the addition of the vehicle to give a 0.1% (w/v) suspension. The resulting 0.1% (w/v) suspension was diluted with the vehicle to give a 0.03% (w/v) suspension. Further, the resulting 0.03% (w/v) suspension was diluted with the vehicle to give a 0.01% (w/v) suspension.
# as §2
# 1) Each test sample (2.5 μL/eye) was instilled into both eyes of 8-month-old
# C57BL/6J mice with a Pipetman once per day (around 9:00) for 14 days.
# as §3, §4, §5, §6
# as §7, with “10” for “8”
# as §8, §9
# Japanese White rabbit = experiment: Ocular irritation test-2 (McDonald-Shadduck method); design: key to Irritation Score of anterior segment of the eye: Discharge / Irritation Score of anterior segment of the eye: Anterior chamber flare / Irritation Score of anterior segment of the eye: Light reflex / Irritation Score of anterior segment of the eye: Iris / Irritation Score of anterior segment of the eye: Corneal opacity / Irritation Score of anterior segment of the eye: Corneal angiogenesis / Irritation Score of anterior segment of the eye: Corneal epithelial disorder / Irritation Score of anterior segment of the eye: Conjunctival hyperemia / Irritation Score of anterior segment of the eye: Conjunctival edema: —: No noteworthy findings; settings: 50 μL/eye, 10 times at 30-minute intervals; for Irritation Score of anterior segment of the eye: Anterior chamber flare / Irritation Score of anterior segment of the eye: Conjunctival edema / Irritation Score of anterior segment of the eye: Corneal angiogenesis / Irritation Score of anterior segment of the eye: Corneal opacity / Irritation Score of anterior segment of the eye: Discharge / Irritation Score of anterior segment of the eye: Iris / Irritation Score of anterior segment of the eye: Light reflex / Irritation Score of anterior segment of the eye: Conjunctival hyperemia: 1 hour after the final instillation; for Irritation Score of anterior segment of the eye: Conjunctival hyperemia: scale +1 slight, +2 moderate, +3 severe; for Irritation Score of anterior segment of the eye: Corneal epithelial disorder: 3 hours after the final instillation
# Procedure: A vehicle eye drop and 0.01% (w/v) and 0.1% (w/v) Compound 4 eye drops were prepared in the same manner as Preparation of Test sample in Pharmacological test-4.
# The vehicle eye drop, and the 0.01% (w/v) and 0.1% (w/v) Compound 4 eye drops were each instilled into one eye of a Japanese White rabbit at a dose volume of 50 μL/eye with pipette 10 times at 30-minute intervals. One hour after the final instillation, ocular irritation of anterior segment of the eye was evaluated using a slit lamp according to the McDonald-Shadduck method. Observation for corneal epithelial disorder was conducted 3 hours after the final instillation.
# The ocular irritation of anterior segment of the eye was scored according to the following criteria: • +1: slight; +2: moderate; +3: severe
# [4] = concentrations of 0.03% and 0.1%
# [5] = all of the concentrations of 0.01%, 0.03% and 0.1%
structure (smiles),measurement,setting,value
"OCCCCC1CCSS1 (centres unmarked) [Compound 6, 4-(1,2-Dithiolan-3-yl)butan-1-ol]",Lens elasticity improvement,C57BL/6J mice [1]; 0.03% sample,40.0 μm
same,Lens elasticity improvement,C57BL/6J mice [1]; 0.1% sample,58.9 μm
same,Lens elasticity effect (in words),C57BL/6J mice [1]; [4],potent elasticity improving effect
"OCCCCCC1CCSS1 (centres unmarked) [Compound 3, 5-(1,2-Dithiolan-3-yl)pentan-1-ol]",Lens elasticity improvement,C57BL/6J mice [2]; 0.01% sample,21.5 μm
same,Lens elasticity improvement,C57BL/6J mice [2]; 0.03% sample,47.3 μm
same,Lens elasticity improvement,C57BL/6J mice [2]; 0.1% sample,60.1 μm
same,Lens elasticity effect (in words),C57BL/6J mice [2]; [5],showed an elasticity improving effect
same,Lens elasticity improvement,C57BL/6J mice [3]; 0.03% sample,39.9 μm
"OCCCCCC(S)CCS (centres unmarked) [Compound 2, 6,8-Dimercaptooctan-1-ol]",Lens elasticity effect (in words),C57BL/6J mice [2]; 0.03% sample group,potent elasticity improving effect
same,Lens elasticity improvement,C57BL/6J mice [2]; 0.03% sample,42.2 μm
"OCCCCCCC1CCSS1 (centres unmarked) [Compound 5, 6-(1,2-Dithiolan-3-yl)hexan-1-ol]",Lens elasticity improvement,C57BL/6J mice [1]; 0.03% sample,22.3 μm
same,Lens elasticity improvement,C57BL/6J mice [1]; 0.1% sample,26.6 μm
same,Lens elasticity effect (in words),C57BL/6J mice [1]; [4],potent elasticity improving effect
"OCCOCCC1CCSS1 (centres unmarked) [Compound 7, 2-[2-(1,2-Dithiolan-3-yl)ethoxy]ethan-1-ol]",Lens elasticity effect (in words),C57BL/6J mice [1]; 0.1% sample group,potent elasticity improving effect
same,Lens elasticity improvement,C57BL/6J mice [1]; 0.1% sample,41.4 μm
OCCCCC[C@@H]1CCSS1 [Compound 4],Lens elasticity improvement,C57BL/6J mice [3]; 0.01% sample,31.1 μm
same,Lens elasticity improvement,C57BL/6J mice [3]; 0.03% sample,60.2 μm
same,Lens elasticity improvement,C57BL/6J mice [3]; 0.1% sample,66.7 μm
same,Lens elasticity effect (in words),C57BL/6J mice [3]; [5],showed an elasticity improving effect
same,Irritation in anterior segment of the eye (in words),Japanese White rabbit; 0.01% (w/v) and 0.1% (w/v) eye drops,No irritation was observed
same,Irritation Score of anterior segment of the eye: Anterior chamber flare,Japanese White rabbit; 0.01% eye drop,—
same,Irritation Score of anterior segment of the eye: Conjunctival edema,Japanese White rabbit; 0.01% eye drop,—
same,Irritation Score of anterior segment of the eye: Corneal angiogenesis,Japanese White rabbit; 0.01% eye drop,—
same,Irritation Score of anterior segment of the eye: Corneal opacity,Japanese White rabbit; 0.01% eye drop,—
same,Irritation Score of anterior segment of the eye: Discharge,Japanese White rabbit; 0.01% eye drop,—
same,Irritation Score of anterior segment of the eye: Iris,Japanese White rabbit; 0.01% eye drop,—
same,Irritation Score of anterior segment of the eye: Light reflex,Japanese White rabbit; 0.01% eye drop,—
same,Irritation Score of anterior segment of the eye: Conjunctival hyperemia,Japanese White rabbit; 0.01% eye drop,—
same,Irritation Score of anterior segment of the eye: Corneal epithelial disorder,Japanese White rabbit; 0.01% eye drop,—
same,Irritation Score of anterior segment of the eye: Anterior chamber flare,Japanese White rabbit; 0.1% eye drop,—
same,Irritation Score of anterior segment of the eye: Conjunctival edema,Japanese White rabbit; 0.1% eye drop,—
same,Irritation Score of anterior segment of the eye: Corneal angiogenesis,Japanese White rabbit; 0.1% eye drop,—
same,Irritation Score of anterior segment of the eye: Corneal opacity,Japanese White rabbit; 0.1% eye drop,—
same,Irritation Score of anterior segment of the eye: Discharge,Japanese White rabbit; 0.1% eye drop,—
same,Irritation Score of anterior segment of the eye: Iris,Japanese White rabbit; 0.1% eye drop,—
same,Irritation Score of anterior segment of the eye: Light reflex,Japanese White rabbit; 0.1% eye drop,—
same,Irritation Score of anterior segment of the eye: Conjunctival hyperemia,Japanese White rabbit; 0.1% eye drop,—
same,Irritation Score of anterior segment of the eye: Corneal epithelial disorder,Japanese White rabbit; 0.1% eye drop,—
